ChEMBL document CHEMBL2311324, “Inhibitors of HIV-1 attachment. Part 10. The discovery and structure-activity relationships of 4-azaindole cores” (Bioorg Med Chem Lett, 2013)

Columns and labels:
[1] = Cytotoxicity against human HeLa cells expressing CD4, CCR5 after 3 days; assay type: cell-based; details: HeLa cells expressing CD4 and CCR5
[2] = system: Human immunodeficiency virus 1; assay: Antiviral activity against HIV1 JR-FL in human HeLa cells expressing CD4, CCR5 assessed as inhibition of integration of viral DNA into cell genome after 3 days by luciferase reporter gene assay; assay type: functional, organism-based; details: Human immunodeficiency virus 1, JR-FL, 72 h
[3] = system: Rattus norvegicus; assay: (§1) AUC in rat at 5 mg/kg, po; assay type: ADME, organism-based, Plasma; parameters: dose 5 mg/kg, route oral; details: in vivo
[4] = system: Rattus norvegicus; assay: Oral bioavailability in rat at 5 mg/kg; assay type: ADME, organism-based; details: in vivo
[5] = as §1; assay type: ADME, organism-based, Plasma; parameters: dose 5 mg/kg, route oral; details: plasma

Compound	CC50 at 72 h [1] [nM]	EC50 [2] [nM]	AUC [3] [µM·h]	F [4] [%]	AUC [5] [µM·h]
O=C(C(=O)N1CCN(C(=O)c2ccccc2)CC1)c1c[nH]c2c(-c3ncco3)ccnc12	> 300000	0.39	–	–	–
Cc1cnn(-c2ccnc3c(C(=O)C(=O)N4CCN(C(=O)c5ccccc5)[C@H](C)C4)c[nH]c23)c1	> 150000	1.59	–	–	–
C[C@@H]1CN(C(=O)C(=O)c2c[nH]c3c(-n4nc5ccccc5n4)ccnc23)CCN1C(=O)c1ccccc1	74000	0.31	–	–	–
C[C@@H]1CN(C(=O)C(=O)c2c[nH]c3c(-n4nnc5ccccc54)ccnc23)CCN1C(=O)c1ccccc1	71000	5.34	–	–	–
Cc1ncn(-c2ccnc3c(C(=O)C(=O)N4CCN(C(=O)c5ccccc5)[C@H](C)C4)c[nH]c23)n1	> 300000	0.59	–	–	–
Cc1ncnn1-c1ccnc2c(C(=O)C(=O)N3CCN(C(=O)c4ccccc4)[C@H](C)C3)c[nH]c12	> 300000	10.8	–	–	–
O=C(C(=O)N1CCN(C(=O)c2ccccc2)CC1)c1c[nH]c2c(-n3nc4ccccc4n3)ccnc12	124000	0.21	–	–	–
O=C(C(=O)N1CCN(C(=O)c2ccccc2)CC1)c1c[nH]c2c(-n3nnc4ccccc43)ccnc12	246000	23.6	–	–	–
O=C(C(=O)N1CCN(C(=O)c2ccccc2)CC1)c1c[nH]c2c(-n3nnc4cccnc43)ccnc12	> 300000	10.6	–	–	–
C[C@@H]1CN(C(=O)C(=O)c2c[nH]c3c(Cl)ccnc23)CCN1C(=O)c1ccccc1	300000	11.6	–	–	–
C[C@@H]1CN(C(=O)C(=O)c2c[nH]c3c(-c4cccs4)ccnc23)CCN1C(=O)c1ccccc1	168000	0.24	–	–	–
Cc1csc(-c2ccnc3c(C(=O)C(=O)N4CCN(C(=O)c5ccccc5)[C@H](C)C4)c[nH]c23)c1	123000	0.21	–	–	–
C[C@@H]1CN(C(=O)C(=O)c2c[nH]c3c(-c4ncco4)ccnc23)CCN1C(=O)c1ccccc1	135000	0.34	5.6	60	–
C[C@@H]1CN(C(=O)C(=O)c2c[nH]c3c(-c4nccs4)ccnc23)CCN1C(=O)c1ccccc1	35000	0.31	1.3	41	–
Cc1cnc(-c2ccnc3c(C(=O)C(=O)N4CCN(C(=O)c5ccccc5)[C@H](C)C4)c[nH]c23)s1	28000	0.71	–	–	–
Cc1csc(-c2ccnc3c(C(=O)C(=O)N4CCN(C(=O)c5ccccc5)[C@H](C)C4)c[nH]c23)n1	30000	0.19	–	–	–
C[C@@H]1CN(C(=O)C(=O)c2c[nH]c3c(-n4nccn4)ccnc23)CCN1C(=O)c1ccccc1	300000	0.44	3.3	78	–
Cc1ccn(-c2ccnc3c(C(=O)C(=O)N4CCN(C(=O)c5ccccc5)[C@H](C)C4)c[nH]c23)n1	300000	0.46	–	–	–
O=C(C(=O)N1CCN(C(=O)c2ccccc2)CC1)c1c[nH]c2c(-c3ccccn3)ccnc12	231000	0.93	–	–	–
O=C(C(=O)N1CCN(C(=O)c2ccccc2)CC1)c1c[nH]c2c(-c3cnccn3)ccnc12	> 300000	1.71	–	–	–
COc1cccc(-c2ccnc3c(C(=O)C(=O)N4CCN(C(=O)c5ccccc5)CC4)c[nH]c23)n1	174000	7.4	–	–	–

Compound	CC50 at 72 h [1] [nM]	EC50 [2] [nM]	AUC [3] [µM·h]	F [4] [%]	AUC [5] [µM·h]
O=C(C(=O)N1CCN(C(=O)c2ccccc2)CC1)c1c[nH]c2c(-n3nccn3)ccnc12	> 300000	0.32	9.6	65	–
O=C(C(=O)N1CCN(C(=O)c2ccccc2)CC1)c1c[nH]c2c(-n3cncn3)ccnc12	> 300000	0.64	–	–	–
O=C(C(=O)N1CCN(C(=O)c2ccccc2)CC1)c1c[nH]c2c(-n3ccnn3)ccnc12	> 300000	0.88	–	–	–
O=C(C(=O)N1CCN(C(=O)c2ccccc2)CC1)c1c[nH]c2c(-n3cccn3)ccnc12	> 300000	0.89	–	–	–
O=C(C(=O)N1CCN(C(=O)c2ccccc2)CC1)c1c[nH]c2c(Cl)ccnc12	> 300000	18.4	–	–	–
COc1ccnc2c(C(=O)C(=O)N3CCN(C(=O)c4ccccc4)CC3)c[nH]c12	> 300000	12.3	–	–	–
Cc1csc(-c2ccnc3c(C(=O)C(=O)N4CCN(C(=O)c5ccccc5)CC4)c[nH]c23)c1	85000	0.02	–	–	–
CC(=O)c1ccc(-c2ccnc3c(C(=O)C(=O)N4CCN(C(=O)c5ccccc5)CC4)c[nH]c23)s1	268000	0.29	–	–	–
O=C(C(=O)N1CCN(C(=O)c2ccccc2)CC1)c1c[nH]c2c(-c3nccs3)ccnc12	150000	0.21	–	–	–
O=C(C(=O)N1CCN(C(=O)c2ccccc2)CC1)c1c[nH]c2c(-c3cncs3)ccnc12	> 300000	0.09	–	–	–
Cc1csc(-c2ccnc3c(C(=O)C(=O)N4CCN(C(=O)c5ccccc5)CC4)c[nH]c23)n1	23000	0.2	–	–	–
Cc1cnc(-c2ccnc3c(C(=O)C(=O)N4CCN(C(=O)c5ccccc5)CC4)c[nH]c23)s1	251000	0.52	–	–	–
CNC(=O)c1ccnc2c(C(=O)C(=O)N3CCN(C(=O)c4ccccc4)C[C@H]3C)c[nH]c12	> 300000	2.48	–	–	–
COc1ccnc2c(C(=O)C(=O)N3CCN(C(=O)c4ccccc4)C[C@H]3C)c[nH]c12	> 300000	0.63	–	–	–
COc1ccnc2c(C(=O)C(=O)N3CCN(C(=O)c4ccccc4)C[C@H]3C)cn(C)c12	> 300000	7.37	–	–	–
COc1ccc(-c2ccnc3c(C(=O)C(=O)N4CCN(C(=O)c5ccccc5)C[C@H]4C)c[nH]c23)cc1	> 300000	0.32	–	–	–
C[C@@H]1CN(C(=O)c2ccccc2)CCN1C(=O)C(=O)c1c[nH]c2c(-c3cncnc3)ccnc12	35300	0.68	–	–	–
C[C@@H]1CN(C(=O)c2ccccc2)CCN1C(=O)C(=O)c1c[nH]c2c(-c3cnccn3)ccnc12	15300	0.27	–	–	–
C[C@@H]1CN(C(=O)c2ccccc2)CCN1C(=O)C(=O)c1c[nH]c2c(C(=O)Nc3nccs3)ccnc12	> 300000	0.43	–	–	–
Cc1csc(NC(=O)c2ccnc3c(C(=O)C(=O)N4CCN(C(=O)c5ccccc5)C[C@H]4C)c[nH]c23)n1	> 300000	3.4	–	–	–
CON(C)C(=O)c1ccnc2c(C(=O)C(=O)N3CCN(C(=O)c4ccccc4)C[C@H]3C)c[nH]c12	> 300000	61.1	–	–	–

Compound	CC50 at 72 h [1] [nM]	EC50 [2] [nM]	AUC [3] [µM·h]	F [4] [%]	AUC [5] [µM·h]
C[C@@H]1CN(C(=O)c2ccccc2)CCN1C(=O)C(=O)c1c[nH]c2c(-c3cccs3)ccnc12	> 300000	0.02	–	–	–
C[C@@H]1CN(C(=O)c2ccccc2)CCN1C(=O)C(=O)c1c[nH]c2c(-c3ccsc3)ccnc12	94500	0.18	–	–	–
C[C@@H]1CN(C(=O)c2ccccc2)CCN1C(=O)C(=O)c1c[nH]c2c(-c3cc4ccccc4s3)ccnc12	170000	0.1	–	–	–
Cc1csc(-c2ccnc3c(C(=O)C(=O)N4CCN(C(=O)c5ccccc5)C[C@H]4C)c[nH]c23)c1	48900	0.04	–	–	–
C[C@@H]1CN(C(=O)c2ccccc2)CCN1C(=O)C(=O)c1c[nH]c2c(-c3nccs3)ccnc12	> 300000	0.1	–	–	–
C[C@@H]1CN(C(=O)c2ccccc2)CCN1C(=O)C(=O)c1c[nH]c2c(-c3ncco3)ccnc12	> 300000	0.18	–	–	–
Cc1noc(C)c1-c1ccnc2c(C(=O)C(=O)N3CCN(C(=O)c4ccccc4)C[C@H]3C)c[nH]c12	> 300000	1.05	–	–	–
Cc1ccnc2c(C(=O)C(=O)N3CCN(C(=O)c4ccccc4)CC3)c[nH]c12	> 300000	46.3	–	–	–
COc1cncc2[nH]cc(C(=O)C(=O)N3CCN(C(=O)c4ccccc4)C[C@H]3C)c12	6000	1.3	–	–	–
C[C@@H]1CN(C(=O)c2ccccc2)CCN1C(=O)C(=O)c1c[nH]c2c(Cl)ccnc12	> 300000	1.22	–	–	–
Cc1ccnc2c(C(=O)C(=O)N3CCN(C(=O)c4ccccc4)C[C@H]3C)c[nH]c12	> 300000	3.06	–	–	–
C[C@@H]1CN(C(=O)c2ccccc2)CCN1C(=O)C(=O)c1c[nH]c2c(C(=O)O)ccnc12	> 300000	3.38	–	–	–
COc1ccnc2[nH]cc(C(=O)C(=O)N3CCN(C(=O)c4ccccc4)C[C@H]3C)c12	> 300000	1	–	–	1.3
C[C@@H]1CN(C(=O)c2ccccc2)CCN1C(=O)C(=O)c1c[nH]c2ncccc12	280000	1.7	–	–	–
C[C@@H]1CN(C(=O)c2ccccc2)CCN1C(=O)C(=O)c1c[nH]c2ccccc12	195000	4.9	–	–	–
COc1cccc2[nH]cc(C(=O)C(=O)N3CCN(C(=O)c4ccccc4)C[C@H]3C)c12	250000	0.8	–	–	–
C[C@@H]1CN(C(=O)c2ccccc2)CCN1C(=O)C(=O)c1c[nH]c2cnccc12	> 300000	22	–	–	–
C[C@@H]1CN(C(=O)c2ccccc2)CCN1C(=O)C(=O)c1c[nH]c2cccnc12	> 300000	1.6	–	–	–
C[C@@H]1CN(C(=O)c2ccccc2)CCN1C(=O)C(=O)c1c[nH]c2ccncc12	> 300000	580	–	–	–
